Experimental data: publication PMC7748245, “Identification and Optimization of a Series of 8-Hydroxy Naphthyridines with Potent In Vitro Antileishmanial Activity: Initial SAR and Assessment of In Vivo Activity” (Journal of Medicinal Chemistry, 2020)
In brackets after ≈: the same amount, converted by molar mass. Read-outs that look alike come from different tables or passages of the source.

How the values were obtained:
L. donovani amastigotes = test: Intramacrophage L. donovani assay (Ld InMac); assay type: cell-based, Leishmania donovani; conditions: for IC50 / EC50: Leishmania donovani; for IC50: read-out: LdInMac pIC50 (converted); for EC50: THP-1, 96 h, read-out: Ld InMac (pEC50) (converted); for EC50 / Ld InMac (pEC50): L. donovani amastigotes in THP-1 cells, 96 h compound exposure; for loss in potency compared to 1: Ld InMac
Experimental: (§1) This assay was conducted as previously described,[8] except for compound exposure time, which was 96 h instead of 72 h.

THP-1 cells = test: THP-1 host cell toxicity readout of the intramacrophage assay; assay type: cell-based, human; conditions: for IC50: Homo sapiens; for THP-1 (pEC50): human THP-1 host cells
Experimental: as §1

[1] = Mouse liver microsomal intrinsic clearance; assay type: in vitro ADME; conditions: for Cli (mouse liver microsomal intrinsic clearance): mouse liver microsomes; for Cli (mouse, ml/min/g): supplement sheet
Experimental: (§2) These assays were conducted as previously described.[23]

[2] = Kinetic aqueous solubility; assay type: physicochemical; conditions: kinetic; read-out: Aq Solubility (kinetic aqueous solubility)
Experimental: as §2

Chrom Log D pH7.4 = assay type: physicochemical; conditions: for ChromLogDpH7.4: pH 7.4; for ChromLogD: supplement sheet
Experimental: This assay was conducted as previously described.[11]

[3] = THP-1, supplement sheet, read-out: THP1 pIC50 (converted)

| Compound | IC50 (L. donovani amastigotes; supplement sheet) [µM] | IC50 (THP-1 cells; [3]) [µM] | LdInMac pIC50 (L. donovani amastigotes; supplement sheet) | THP-1 (pEC50) (THP-1 cells) | THP1 pIC50 (THP-1 cells; supplement sheet) | Cli (mouse liver microsomal intrinsic clearance) [1] [mL/min/g] | Cli (mouse, ml/min/g) [1] [mL/min/g] | solubility kinetic [2] [µM] | also measured |
| --- | --- | --- | --- | --- | --- | --- | --- | --- | --- |
| Cc1n[nH]c(-c2ncc3cccnc3c2O)n1 [Compound 4, 7-(3-Methyl-1H-1,2,4-triazol-5-yl)-1,6-naphthyridin-8-ol] | > 50.1 | > 50.1 |  |  |  |  |  |  |  |
| Oc1c(-c2nc(CN3CCOCC3)n[nH]2)ncc2cccnc12 [Compound 5, 7-(3-(Morpholinomethyl)-1H-1,2,4-triazol-5-yl)-1,6-naphthyridin-8-ol] | 31.6 | > 50.1 |  |  |  |  |  |  | EC50 (L. donovani amastigotes): 31.6 µM |
| Cc1n[nH]c(-c2nc(-c3ccccc3)c3cccnc3c2O)n1 [Compound 14, 7-(3-Methyl-1H-1,2,4-triazol-5-yl)-5-phenyl-1,6-naphthyridin-8-ol] |  |  | 5.9 | <4.3 | <4.3 | 9.4 | 9.4 | 160 (≈ 48.5 µg/mL) | Ld InMac (pEC50) (L. donovani amastigotes): 5.9 |
| O=C(NCc1ccc(F)cc1)c1nc(N2CCCCS2(=O)=O)c2cccnc2c1O [Compound 30, N-(4-Fluorobenzyl)-5-(1,1-dioxido-1,2-thiazinan-2-yl)-8-hydroxy-1,6-naphthyridine-7-carboxamide, reference compound] |  |  | <4.3 | 4.5 | 4.5 | 2.0 | 2 | > 250 |  |
| O=C(NCc1ccc(Cl)cc1)c1nc(NC2CCOCC2)c2cccnc2c1O [Compound 31, N-(4-Chlorobenzyl)-8-hydroxy-5-((tetrahydro-2H-pyran-4-yl)amino)-1,6-naphthyridine-7-carboxamide] |  |  | 5.3 | <4.3 | <4.3 | 2.2 | 2.2 | >250 | Ld InMac (pEC50) (L. donovani amastigotes): 5.3; ChromLogDpH7.4 (Chrom Log D pH7.4): 5.3; ChromLogD (Chrom Log D pH7.4): 5.3 |
| Cc1n[nH]c(-c2nc(N3CCCC3=O)c3cccnc3c2O)n1 [Compound 12, 1-(8-Hydroxy-7-(3-methyl-1H-1,2,4-triazol-5-yl)-1,6-naphthyridin-5-yl)pyrrolidin-2-one] |  |  | <4.3 | <4.3 | <4.3 | <0.5 | <0.5 | 109 (≈ 33.8 µg/mL) |  |
| O=C(NCc1ccc(Cl)cc1)c1ncc2cccnc2c1O [Compound 7, N-(4-Chlorobenzyl)-8-hydroxy-1,6-naphthyridine-7-carboxamide] | 0.501 | > 50.1 |  |  |  |  |  |  | EC50 (L. donovani amastigotes): 0.501 µM |
| CNc1nc(-c2nc(C)n[nH]2)c(O)c2ncccc12 [Compound 8, 7-(3-Methyl-1H-1,2,4-triazol-5-yl)-5-(methylamino)-1,6-naphthyridin-8-ol] |  |  | <4.3 | <4.3 | <4.3 | 3.1 | 3.1 | >250 | ChromLogDpH7.4 (Chrom Log D pH7.4): -0.2; ChromLogD (Chrom Log D pH7.4): -0.2 |
| Oc1c(-c2nc(C(O)c3ccccc3)n[nH]2)ncc2cccnc12 (stereo not shown) [Compound 3, 7-(3-(Hydroxy(phenyl)methyl)-1H-1,2,4-triazol-5-yl)-1,6-naphthyridin-8-ol] | 5.01 | > 50.1 |  |  |  |  |  |  | loss in potency compared to 1 (L. donovani amastigotes): ~10 fold |
| COc1ccc(CNC(=O)c2nn(C)c3cccnc3c2=O)cc1 [Compound 23, N-(4-Methoxybenzyl)-1-methyl-4-oxo-1,4-dihydropyrido[3,2-c]pyridazine-3-carboxamide] | > 50.1 | > 50.1 |  |  |  |  |  |  |  |
| 2-(8-Hydroxy-7-(3-methyl-1H-1,2,4-triazol-5-yl)-1,6-naphthyridin-5-yl)-1,2-thiazinane 1,1-dioxide [Compound 13] |  |  | <4.3 | <4.3 | <4.3 | 0.6 | 0.6 | 250 | ChromLogDpH7.4 (Chrom Log D pH7.4): 1.5; ChromLogD (Chrom Log D pH7.4): 1.5 |
| N-(Cyclopropylmethyl)-8-hydroxy-5-(2-methoxyphenyl)-1,6-naphthyridine-7-carboxamide [Compound 33] |  |  | 5.7 | <4.3 | <4.3 | 8 | 8 | >250 | Ld InMac (pEC50) (L. donovani amastigotes): 5.7 |
| Cc1n[nH]c(-c2cc3ncccc3c(-c3ccccc3)n2)n1 [Compound 17] | > 50.1 | > 50.1 |  |  |  |  |  |  |  |
| N-(4-Chlorobenzyl)-8-hydroxy-5-morpholino-1,6-naphthyridine-7-carboxamide [Compound 32] |  |  | <4.3 | <4.3 | <4.3 | 24 | 24 | 219 | Ld InMac (pEC50) (L. donovani amastigotes): <4.3 |
| COc1ccccc1-c1nc(-c2nnc(C)o2)c(O)c2ncccc12 [Compound 19, 5-(2-Methoxyphenyl)-7-(5-methyl-1,3,4-oxadiazol-2-yl)-1,6-naphthyridin-8-ol] | > 50.1 | > 50.1 |  |  |  | <0.5 | <0.5 |  |  |
| (R)-N-(1-(4-Fluorophenyl)ethyl)-1-methyl-4-oxo-1,4-dihydro-1,5-naphthyridine-3-carboxamide [Compound 22] |  |  | <4.3 | <4.3 | <4.3 | 0.7 | 0.7 | >250 |  |
| Cc1nnc(C(=O)NC(C)(C)c2nc(C(=O)NCc3ccc(F)cc3)c(O)c(=O)n2C)o1 [Compound 24, Raltegravir, reference compound] |  |  |  |  |  |  |  |  | IC50 (L. donovani amastigotes): > 50.1 µM; IC50 (THP-1 cells; THP-1, read-out: THP1 pIC50 (converted)): > 50.1 µM |
| O=C(NCc1ccc(Cl)cc1)c1ncc2ccccc2c1O [Compound 21] | > 50.1 | > 50.1 |  |  |  |  |  |  |  |
| Oc1c(-c2nnc(Cc3ccc(F)cc3)[nH]2)ncc2cccnc12 [Compound 2] | 2.51 | 39.8 |  |  |  |  |  |  | loss in potency compared to 1 (L. donovani amastigotes): ~10 fold |
| COc1ccccc1-c1nc(-c2nc(C)n[nH]2)c(OC)c2ncccc12 [Compound 18] | 2.51 | > 50.1 |  |  |  |  |  |  |  |
| N-(Cyclopropylmethyl)-8-hydroxy-1,6-naphthyridine-7-carboxamide [Compound 29] |  |  | 5.9 | <4.3 | <4.3 | 13 | 13 |  | Ld InMac (pEC50) (L. donovani amastigotes): 5.9; ChromLogDpH7.4 (Chrom Log D pH7.4): 3.3; ChromLogD (Chrom Log D pH7.4): 3.3 |
| COc1ccc(CNC(=O)c2ncc3cccnc3c2O)cc1 [Compound 27, 8-Hydroxy-N-(4-methoxybenzyl)-1,6-naphthyridine-7-carboxamide] | 0.501 | > 50.1 |  |  |  |  |  |  | Ld InMac (pEC50) (L. donovani amastigotes): 6.3; EC50 (L. donovani amastigotes): < 1 µM |
| Oc1c(-c2nnc(Cc3ccc(Cl)cc3)[nH]2)ncc2cccnc12 [Compound 1] | 0.316 | 31.6 |  |  |  |  |  |  | EC50 (L. donovani amastigotes): 0.316 µM; selectivity over the human THP-1 cell line (L. donovani amastigotes; parasite vs THP-1 pEC50): ~100 fold |
| O=C1CCCN1Cc1n[nH]c(-c2ncc3cccnc3c2O)n1 [Compound 6, 1-((5-(8-Hydroxy-1,6-naphthyridin-7-yl)-1H-1,2,4-triazol-3-yl)methyl)pyrrolidin-2-one] | > 50.1 | > 50.1 |  |  |  | <0.5 | <0.5 |  |  |
| O=C(NCc1ccc(Cl)cc1)c1ccc2cccnc2c1O [Compound 20] | 15.8 | 6.31 |  | toxic to the host THP-1 cells |  |  |  |  |  |
